Test results from PubChem BioAssay (NCI).
Where “and” joins values, the source holds several entries; their conditions need not be identical. Equal values may be shown once.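 Where inhibition never reached the appropriate level, the endpoint shown equals the highest concentration tested. Otherwise, values were interpolated linearly from a five-concentration, 48-hour dose response in 96-well plates. Abbreviation: GI50, concentration required for 50% inhibition of growth. At the TGI there is no net growth.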

Columns and labels:
Assay in all cases: NCI-60 cell line screen, 48 h
[1] = test system: A498 renal
[2] = test system: IGROV1 ovarian
[3] = test system: SF-539 CNS
[4] = test system: SK-MEL-28 melanoma
[5] = test system: SN12C renal
[6] = test system: SNB-19 CNS
[7] = test system: U251 CNS
[8] = test system: EKVX NSCLC
[9] = test system: HOP-62 NSCLC
[10] = test system: NCI/ADR-RES ovarian

SMILES | TGI [1] | TGI [2] | TGI [3] [µM] | TGI [4] | TGI [5] | TGI [6] | TGI [7] | TGI [8] | TGI [9] | TGI [10] | GI50 [8] [µM] | GI50 [2] | GI50 [10] | GI50 [4] | GI50 [6] | GI50 [1] [µM] | GI50 [9] [µM] | GI50 [3] [µM] | GI50 [7] [µM] | GI50 [5] [µM]
C=CCOCCCC(=O)C(=[N+]=[N-])C(=O)OC | > 100 µM | > 100 µM | > 100 | > 100 µM | > 100 µM | > 100 µM | > 100 µM |  |  |  |  |  |  |  |  |  |  |  |  | 
C=C1C(C2(C)C=CC(=O)OC3(C)COC(=O)CC32)C(OC=O)C(OC(=O)C(O)C(C)CC)C2(C)C(c3ccoc3)CC(OC(C)=O)C12O (stereo not given) | > 100 µM | > 100 µM | > 100 | > 100 µM | > 100 µM | > 100 µM | > 100 µM | > 100 µM | > 100 µM | > 100 µM |  |  |  |  |  |  |  |  |  | 
Cc1c(N)nc([C@H](CC(N)=O)NC[C@H](N)C(N)=O)nc1C(=O)N[C@H](C(=O)N[C@H](C)[C@@H](O)[C@H](C)C(=O)N[C@H](C(=O)NCCc1nc(-c2nc(C(=O)NCCC[S+](C)C)cs2)cs1)[C@@H](C)O)C(OC1OC(CO)C(O)C(O)C1OC1OC(CO)C(O)C(OC(N)=O)C1O)c1cnc[nH]1 (stereo not given in full) | 19.6 µM and 29 µM and 41.5 µM | 22.9 µM and 29 µM and 33.6 µM |  | 25 µM and > 29 µM and > 100 µM | 13.2 µM [middle of 4 runs] | 23 µM and 25 µM and > 100 µM |  | 22 µM and 25 µM |  | 12.8 µM and 4.87 µM and 5.61 µM | 25 | 6.89 µM and 1.22 µM | 1.21 µM and 1.09 µM | > 29 µM and 28.1 µM | 2.72 µM and 2.89 µM |  |  |  |  | 
CCCCC1Cc2cc(OC)ccc2-c2nc3cc(OC)ccc3n21 (stereo not given) (tested in a mixture with another compound) |  | 23.1 µM | 29.7 |  | 27.9 µM | 21.5 µM | 28.3 µM | 25.2 µM | 29.2 µM | 26.4 µM |  |  |  |  |  |  |  |  |  | 
COC1(OC)C[C@H](C)[C@@]23O[C@]24c2cc(O)c5c(c2N[C@H]3C#C/C=C\C#C[C@]14O)C(=O)c1ccccc1C5=O | 0.00964 µM and 0.0459 µM | 0.16 µM | 0.00304 | 0.234 µM and 0.087 µM | 0.00979 µM | 0.225 µM | 0.0421 µM and 0.0705 µM | 0.213 µM and 0.202 µM | 0.00216 µM and 0.0173 µM |  | 0.0527 |  | 0.00223 µM | 0.0273 µM |  | 0.005 | < 0.001 | < 0.001 | 0.00251 | 
OC(c1ccc(-c2ccccc2)cc1)(c1ccc(-c2ccccc2)cc1)c1ccc(-c2ccccc2)cc1 |  | > 100 µM |  | > 100 µM | > 100 µM | > 100 µM | > 100 µM | > 100 µM | > 100 µM | > 100 µM |  |  |  |  |  |  |  |  |  | 
Cc1c(Cl)c(=O)oc2cc(OCC(=O)c3ccccc3)ccc12 | > 100 µM | > 100 µM | > 100 | > 100 µM | > 100 µM | > 100 µM | > 100 µM | > 100 µM | 67.8 µM | > 100 µM |  |  |  |  |  |  |  |  |  | 
CC(=O)C1=C(O)C2(O)C(=O)c3c(c(C)c4ccc(C)c(O)c4c3O)CC2C(N)C1=O (stereo not given) | 8.45 µM | 13 µM | 14.8 | 13.3 µM | 9.79 µM | 23.9 µM | 7.82 µM | 12.2 µM | 10.7 µM | 13.7 µM |  |  | 1.89 µM |  |  |  |  |  |  | 
CN(C)CCNc1c([N+](=O)[O-])cc2c3c(cccc13)C(=O)N(CCN(C)C)C2=O | 4.34 µM | 8.17 µM | 8.29 | 12.9 µM | 9.28 µM | 8.33 µM | 6.44 µM | 4.37 µM | 8.49 µM | 9.32 µM |  |  |  |  |  |  |  |  |  | 
O=C(O)C(Cc1ccccc1)N1C(=O)c2ccccc2C1=O (stereo not given) | > 100 µM | > 100 µM | > 100 | 30.4 µM | > 100 µM | > 100 µM | > 100 µM | > 100 µM | > 100 µM | > 100 µM |  |  |  |  |  |  |  |  |  | 
Cc1c2c(cc3c1[nH]c1ccccc13)C(c1ccc(F)cc1)=NCC2 | 4.73 µM | 3.73 µM | 2.77 | 4.74 µM | 6.4 µM | 6.94 µM | 5.11 µM | 9.02 µM | 6.54 µM | 2.36 µM |  |  |  |  |  |  |  |  |  | 
O=C1CC(N2C(=O)/C(=C/C(Cl)=C\c3ccc([N+](=O)[O-])cc3)SC2=S)C(=O)N1c1ccc(Cl)cc1 (stereo not given) |  | 3.26 µM | 4.14 | 4.02 µM | 11.1 µM | 2.97 µM | 2.47 µM | > 100 µM | 5.5 µM | 6.19 µM | 3.11 | 1.03 µM | 1.01 µM | 1.71 µM | 1.17 µM |  | 1.73 | 1.69 | 0.478 | 1.69
